Article PMC12531613, “Synthesis and Biological Evaluation of Novel 2‐(Piperidin‐4‐yl)‐1,2,3,4‐tetrahydroisoquinoline and 2‐(Piperidin‐4‐yl)decahydroisoquinoline Antimycotics” (Archiv Der Pharmazie, 2025)
≈ marks a conversion by molar mass, not a printed value. Read-outs that look alike come from different tables or passages of the source.

What was measured:
Format in all cases: cell-based
Yarrowia lipolytica = assay: MIC100 microdilution assay against Yarrowia lipolytica
Method: In previous research we found a good correlation between MIC values against Yarrowia lipolytica and pathogenic Candida species.
Determination of MICs against Yarrowia lipolytica (DSMZ, Braunschweig, Germany) was carried out according to lit. Yarrowia lipolytica was cultivated in AC‐agar (Sigma Aldrich). Concentration of yeast cells was determined by photometer and adjusted to a turbidity of 0.5 according to McFarland standard at 600 nm. All substances were dissolved in DMSO or methanol.
Determination of MICs (minimal inhibitory concentration) against Yarrowia lipolytica was carried out according to Lit.^[13] Concentration of yeast cells was determined by photometer and adjusted to a turbitity of 0.5 according to McFarland Standard.

C. krusei = assay: MIC90 microdilution (EUCAST), C. krusei; details: Pichia kudriavzevii, 24 h
Method: (§1) Determination of MICs (minimal inhibitory concentration) against Candida species was carried out according to the European Committee of Antifungal Susceptibility Testing. Concentration of yeast cells was determined by photometer and adjusted to a turbidity of 0.5 according to McFarland standard. MIC90 was determined by microdilution plate reader (Sunrise Tecan) at 450 nm, after 24 h incubation at 37°C. MIC90 was defined as the minimal concentration of chemical causing 90% growth inhibition, respectively. Growth inhibition of molds was determined by eye and microscopically, following EUCAST guidelines. All substances were dissolved in DMSO and diluted in RPMI 1640 medium, containing 2% glucose. All assays were carried out twice.

C. albicans = assay: MIC90 microdilution (EUCAST), C. albicans; details: Candida albicans, 24 h
Method: as §1

A. fumigatus (R16) = assay: MIC90 growth inhibition of molds (EUCAST), A. fumigatus (R16); details: Aspergillus fumigatus
Method: as §1

C. glabrata = assay: MIC90 microdilution (EUCAST), C. glabrata; details: Nakaseomyces glabratus, 24 h
Method: as §1

A. fumigatus (A65) = assay: MIC90 growth inhibition of molds (EUCAST), A. fumigatus (A65); details: Aspergillus fumigatus, RPMI 1640, 2% glucose, read by eye and microscopically
Method: Determination of MICs (minimal inhibitory concentration) against Candida species was carried out according to the European Committee of Antifungal Susceptibility Testing. Concentration of yeast cells was determined by photometer and adjusted to a turbidity of 0.5 according to McFarland standard. […] Growth inhibition of molds was determined by eye and microscopically, following EUCAST guidelines. […] All assays were carried out twice.

A. fumigatus (R7) = assay: MIC90 growth inhibition of molds (EUCAST), A. fumigatus (R7); details: Aspergillus fumigatus
Method: as §1

R. arrhizus (oryzae) = assay: MIC90 growth inhibition of molds (EUCAST), R. arrhizus (oryzae); details: Rhizopus arrhizus
Method: as §1

[1] = MTT cytotoxicity assay against HL 60 cells; details: human, HL-60 cells (human leukemia cells); HL 60 cell line; MTT assay; read-out: IC50 cytotoxicity
Method: The cytotoxicity of the active compounds was checked in an MTT assay against human HL 60 cells. […] Although, this corresponds to the MIC range that would be needed in treatment, the values are within the range observed for commonly used antimycotics such as amorolfine and posaconazole. All active compounds were evaluated for their biopharmaceutical behavior and drug‐likeness using the online program SwissADME [26] and should show oral bioavailability according to the Lipinski rules of five.
HL‐60 cells (human leukemia cells, DSM No. ACC3) were obtained from DSMZ (German Collection of Microorganisms and Cell Cultures, Braunschweig, Germany) and cultivated in RPMI 1640 medium with 10% fetal bovine serum (FBS), both from PAA Laboratories, Cölbe, Germany) without the addition of antibiotics at 37°C in a humidified atmosphere containing 5% CO2. The assay was performed according to lit.

R. microsporus = assay: MIC90 growth inhibition of molds (EUCAST), R. microsporus; details: Rhizopus microsporus
Method: as §1

[2] = 48 h, read-out: Biological Activity MIC Yarrowia lipolytica

CCCC(=O)N1CCC(N2CCc3cc(OC)c(OC)cc3C2)CC1 [5d, 1‐[4‐(6,7‐Dimethoxy‐3,4‐dihydroisoquinolin‐2(1H)‐yl)‐piperidin‐1‐yl]butan‐1‐one]
MIC (Yarrowia lipolytica; [2]): > 100 µg/mL
MIC (Yarrowia lipolytica; 48 h, read-out: MIC100): > 100 µg/mL

CCCCCCCC(=O)N1CCC(N2CCc3cc(OC)c(OC)cc3C2)CC1 [5e, 1‐[4‐(6,7‐Dimethoxy‐3,4‐dihydroisoquinolin‐2(1H)‐yl)‐piperidin‐1‐yl]‐octan‐1‐one]
MIC (Yarrowia lipolytica; [2]): > 100 µg/mL
MIC (Yarrowia lipolytica; 48 h, read-out: MIC100): > 100 µg/mL

CCCCCCCCCCCC(=O)N1CCC(N2CCc3cc(OC)c(OC)cc3C2)CC1 [5f, 1‐[4‐(6,7‐Dimethoxy‐3,4‐dihydroisoquinolin‐2(1H)‐yl)piperidin‐1‐yl]dodecan‐1‐one]
MIC (Yarrowia lipolytica; [2]): > 100 µg/mL
MIC (Yarrowia lipolytica; 48 h, read-out: MIC100): > 100 µg/mL

CCCCCCCCN1CCC(N2CCc3ccccc3C2)CC1 [6b, 2‐(1‐Octylpiperidin‐4‐yl)‐1,2,3,4‐tetrahydroisoquinoline]
MIC (Yarrowia lipolytica; [2]): 100 µg/mL
MIC (Yarrowia lipolytica; 48 h, read-out: MIC100): 100 µg/mL

CCCCN1CCC(N2CCc3cc(OC)c(OC)cc3C2)CC1 [6d, 2‐(1‐Butylpiperidin‐4‐yl)‐6,7‐dimethoxy‐1,2,3,4‐tetrahydroisoquinoline]
MIC90 (C. krusei): > 32 µg/mL
MIC90 (C. albicans): > 32 µg/mL
MIC90 (A. fumigatus (R16)): > 32 µg/mL
MIC (Yarrowia lipolytica; [2]): > 100 µg/mL
MIC (Yarrowia lipolytica; 48 h, read-out: MIC100): > 100 µg/mL
MIC90 (C. glabrata): > 32 µg/mL
MIC90 (A. fumigatus (A65)): > 32 µg/mL
MIC90 (A. fumigatus (R7)): > 32 µg/mL
MIC90 (R. arrhizus (oryzae)): > 32 µg/mL
IC50 [1]: > 100 µg/mL
MIC90 (R. microsporus): > 32 µg/mL

c1ccc(CN2CCC(N3CCc4ccccc4C3)CC2)cc1 [7a, 2‐(1‐Benzylpiperidin‐4‐yl)‐1,2,3,4‐tetrahydroisoquinoline]
MIC90 (C. krusei): > 32 µg/mL
MIC90 (C. albicans): > 32 µg/mL
MIC90 (A. fumigatus (R16)): > 32 µg/mL
MIC (Yarrowia lipolytica; [2]): > 100 µg/mL
MIC (Yarrowia lipolytica; 48 h, read-out: MIC100): > 100 µg/mL
MIC90 (C. glabrata): > 32 µg/mL
MIC90 (A. fumigatus (A65)): > 32 µg/mL
MIC90 (A. fumigatus (R7)): > 32 µg/mL
MIC90 (R. arrhizus (oryzae)): > 32 µg/mL
MIC90 (R. microsporus): > 32 µg/mL

COc1cc2c(cc1OC)CN(C1CCN(Cc3ccccc3)CC1)CC2 [7b, 2‐(1‐Benzylpiperidin‐4‐yl)‐6,7‐dimethoxy‐1,2,3,4‐tetrahydroisoquinoline]
MIC90 (C. krusei): > 32 µg/mL
MIC90 (C. albicans): > 32 µg/mL
MIC90 (A. fumigatus (R16)): > 32 µg/mL
MIC (Yarrowia lipolytica; [2]): > 100 µg/mL
MIC (Yarrowia lipolytica; 48 h, read-out: MIC100): > 100 µg/mL
MIC90 (C. glabrata): > 32 µg/mL
MIC90 (A. fumigatus (A65)): > 32 µg/mL
MIC90 (A. fumigatus (R7)): > 32 µg/mL
MIC90 (R. arrhizus (oryzae)): > 32 µg/mL
MIC90 (R. microsporus): > 32 µg/mL

c1ccc(CN2CCC(N3CCC4CCCCC4C3)CC2)cc1 (centres unmarked) [7c, 2‐(1‐Benzylpiperidin‐4‐yl)decahydroisoquinoline]
MIC (Yarrowia lipolytica; [2]): > 100 µg/mL
MIC (Yarrowia lipolytica; 48 h, read-out: MIC100): > 100 µg/mL

CCC(C)(C)c1ccc(CC(C)CN2C[C@@H](C)O[C@@H](C)C2)cc1 (some centres unmarked) [Amorolfine, reference compound]
IC50 [1]: 17 µg/mL (≈ 53.5 µM)

Clc1ccccc1C(c1ccccc1)(c1ccccc1)n1ccnc1 [Clotrimazole, reference compound]
MIC (Yarrowia lipolytica; microdilution, 48 h, 25°C, 600 nm, read-out: MIC100): 0.4 µg/mL
MIC (Yarrowia lipolytica; microdilution, same value given in µM, read-out: MIC100 (molar value in brackets)): 1.2 µM

OC(Cn1cncn1)(Cn1cncn1)c1ccc(F)cc1F [FLZ, fluconazole, reference compound]
MIC90 (C. krusei; C. krusei, RPMI 1640, 2% glucose, 37°C, duplicate, read-out: MIC90): 8 µg/mL (≈ 26.1 µM)
MIC90 (C. albicans; C. albicans, RPMI 1640, 2% glucose, 37°C, duplicate, read-out: MIC90): 0.25 µg/mL (≈ 0.816 µM)
MIC90 (A. fumigatus (R16); A. fumigatus (R16), RPMI 1640, 2% glucose, read by eye and microscopically, read-out: MIC90): > 32 µg/mL
MIC90 (C. glabrata; C. glabrata, RPMI 1640, 2% glucose, 37°C, duplicate, read-out: MIC90): 16 µg/mL (≈ 52.2 µM)
MIC90 (A. fumigatus (A65)): 32 µg/mL (≈ 104 µM)
MIC90 (A. fumigatus (R7); A. fumigatus (R7), RPMI 1640, 2% glucose, read by eye and microscopically, read-out: MIC90): 16 µg/mL (≈ 52.2 µM)
MIC90 (R. arrhizus (oryzae); R. arrhizus (oryzae), RPMI 1640, 2% glucose, read by eye and microscopically, read-out: MIC90): > 32 µg/mL
MIC90 (R. microsporus; R. microsporus, RPMI 1640, 2% glucose, read by eye and microscopically, read-out: MIC90): > 32 µg/mL

CC[C@@H]([C@H](C)O)n1ncn(-c2ccc(N3CCN(c4ccc(OC[C@@H]5CO[C@@](Cn6cncn6)(c6ccc(F)cc6F)C5)cc4)CC3)cc2)c1=O [Posaconazole, reference compound]
IC50 [1]: 5 µg/mL (≈ 7.13 µM)
